Assay results from ChEMBL document CHEMBL1128084, “A general method for synthesis of ether phospholipids with -linolenic acid and their properties” (Bioorg Med Chem Lett, 1995).

Test: Inhibiting aggregation of rabbit platelet induced by platelet-activating factor
Conditions: Oryctolagus cuniculus; concentration not given here

Structure (SMILES): CC/C=C/C/C=C/C/C=C/CCCCCCCCC(=O)O[C@@H](COCCCCCCCCCCCCCCCC)COP(=O)([O-])OCC[N+](C)(C)C
- inhibition: 4.3%
